From patent US9328099B2, “Cyanomethylpyrazole carboxamides as janus kinase inhibitors” (Merck Sharp & Dohme Corp., priority 2011, dated 2016)

Key:
JAK2 = JAK2 (Homo sapiens (Human), UniProt O60674); experiment: Jak Biochemical HTRF Assay, JAK2; conditions: HTRF biochemical assay, GST-tagged catalytic domain; top concentration tested […]
Text: (§1) Jak Biochemical HTRF Assay Protocol
(§2) Subsequent reagent additions employed an Agilent Bravo.

JAK1 = JAK1 (Homo sapiens (Human), UniProt P23458); experiment: Jak Biochemical HTRF Assay, JAK1; conditions: HTRF biochemical assay, GST-tagged catalytic domain; top concentration tested […]; read-out: JAK1 IC50
JAK1, sequence (P23458 875-1153): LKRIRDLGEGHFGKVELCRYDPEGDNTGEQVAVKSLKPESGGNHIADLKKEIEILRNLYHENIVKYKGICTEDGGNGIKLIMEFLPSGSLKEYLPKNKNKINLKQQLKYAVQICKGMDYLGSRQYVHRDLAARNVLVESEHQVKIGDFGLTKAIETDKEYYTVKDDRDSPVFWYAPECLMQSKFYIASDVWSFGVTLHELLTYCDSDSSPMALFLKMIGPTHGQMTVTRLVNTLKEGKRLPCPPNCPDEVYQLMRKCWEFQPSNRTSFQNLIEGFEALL
Text: as §1, §2

JAK2, sequence (O60674 849-1124): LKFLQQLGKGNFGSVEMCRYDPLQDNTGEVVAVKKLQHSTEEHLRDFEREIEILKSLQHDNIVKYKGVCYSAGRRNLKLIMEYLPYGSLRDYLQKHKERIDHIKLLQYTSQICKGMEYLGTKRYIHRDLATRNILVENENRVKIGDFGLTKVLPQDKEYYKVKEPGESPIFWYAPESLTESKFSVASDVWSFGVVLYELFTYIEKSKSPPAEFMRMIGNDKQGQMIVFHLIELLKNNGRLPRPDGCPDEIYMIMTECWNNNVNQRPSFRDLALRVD

## N#CCC1(n2cc(C(N)=O)c(Nc3ccc(S(=O)(=O)C(F)F)cc3)n2)CCC(NCC(F)(F)F)CC1 (stereo not drawn) [Example 40-85, Cis or trans 1-{1-(cyanomethyl)-4-[(2,2,2-trifluoroethyl)amino]cyclohexyl}-3-({4-[(difluoromethyl)sulfonyl]phenyl}amino)-1H-pyrazole-4-carboxamide]
JAK2
  IC50: 0.2 nM
JAK1
  IC50: 0.02 nM

## N#CCC1(n2cc(C(N)=O)c(Nc3ccccc3)n2)CN(S(=O)(=O)c2ccccc2)C1 [Example 37-19, 1-[3-(cyanomethyl)-1-(phenylsulfonyl)azetidin-3-yl]-3-(phenylamino)-1H-pyrazole-4-carboxamide]
JAK2
  IC50: 463 nM
JAK1
  IC50: 138 nM

## N#CCC1(n2cc(C(N)=O)c(Nc3ccc(Cl)cc3)n2)CCC(N2CC(F)C2)CC1 (stereo not drawn) [Example 39-1, Cis or trans 3-((4-chlorophenyl)amino)-1-(1-(cyanomethyl)-4-(3-fluoroazetidin-1-yl)cyclohexyl)-1H-pyrazole-4-carboxamide]
JAK2
  IC50: 2 nM
JAK1
  IC50: 0.09 nM

## CC(C)(C)OC(=O)N1CCC(CC#N)(n2cc(C(N)=O)c(Nc3ccncn3)n2)CC1 [Example 13-1, tert-Butyl 4-(4-carbamoyl-3-(pyrimidin-4-ylamino)-1H-pyrazol-1-yl)-4-(cyanomethyl)piperidine-1-carboxylate]
JAK2
  IC50: 139 nM
JAK1
  IC50: 3 nM

## N#CCC1(n2cc(C(N)=O)c(Nc3ccnc(F)c3)n2)CCN(Cc2cccc(Cl)c2)CC1 [Example 22-61, 1-[1-(3-chlorobenzyl)-4-(cyanomethyl)piperidin-4-yl]-3-[(2-fluoropyridin-4-yl)amino]-1H-pyrazole-4-carboxamide]
JAK2
  IC50: 10 nM
JAK1
  IC50: 0.4 nM

## CCc1ccccc1NC(=O)N1CC(CC#N)(n2cc(C(N)=O)c(Nc3ccccc3)n2)C1 [Example 38-39, 1-{3-(cyanomethyl)-1-[(2-ethylphenyl)carbamoyl]azetidin-3-yl}-3-(phenylamino)-1H-pyrazole-4-carboxamide]
JAK2
  IC50: 303 nM
JAK1
  IC50: 16 nM

## CC(C)(C)OC(=O)N1CCC(CC#N)(n2cc(C(N)=O)c(Nc3ccc(S(C)(=O)=O)cc3)n2)CC1 [Example 4-1, tert-Butyl 4-(4-carbamoyl-3-{[4-(methylsulfonyl)phenyl]amino}-1H-pyrazol-1-yl)-4-(cyanomethyl)piperidine-1-carboxylate]
JAK2
  IC50: 1 nM
JAK1
  IC50: 0.1 nM

## N#CCC1(n2cc(C(N)=O)c(Nc3ccnc(F)c3)n2)CCC(NCc2cccc(F)c2)CC1 (stereo not drawn) [Example 41-24, Cis or trans 1-{1-(cyanomethyl)-4-[(3-fluorobenzyl)amino]cyclohexyl}-3-[(2-fluoropyridin-4-yl)amino]-1H-pyrazole-4-carboxamide]
JAK2
  IC50: 1030 nM
JAK1
  IC50: 26 nM

## N#CCC1(n2cc(C(N)=O)c(Nc3ccc(F)cc3)n2)CCN(Cc2ccccc2)CC1 [Example 22-7, 1-[1-benzyl-4-(cyanomethyl)piperidin-4-yl]-3-[(4-fluorophenyl)amino]-1H-pyrazole-4-carboxamide]
JAK2
  IC50: 13 nM
JAK1
  IC50: 0.3 nM

## N#CCC1(n2cc(C(N)=O)c(Nc3ccccc3)n2)CN(C(=O)OCc2ccncc2)C1 [Example 30-66, pyridin-4-ylmethyl 3-[4-carbamoyl-3-(phenylamino)-1H-pyrazol-1-yl]-3-(cyanomethyl)azetidine-1-carboxylate]
JAK2
  IC50: 353 nM
JAK1
  IC50: 19 nM

## N#CCC1(n2cc(C(N)=O)c(Nc3ccc(C(O)C(F)(F)F)nc3)n2)CCN(C(=O)OCC(F)(F)F)CC1 (stereo not drawn) [Example 10-3, 2,2,2-trifluoroethyl 4-(4-carbamoyl-3-(6-(2,2,2-trifluoro-1-hydroxyethyl)pyridin-3-ylamino)-1H-pyrazol-1-yl)-4-(cyanomethyl)piperidine-1-carboxylate]
JAK2
  IC50: 0.6 nM
JAK1
  IC50: 0.06 nM

## CC(C)NC(=O)N1CC(CC#N)(n2cc(C(N)=O)c(Nc3ccccc3)n2)C1 [Example 38-3, 1-{3-(cyanomethyl)-1-[(1-methylethyl)carbamoyl]azetidin-3-yl}-3-(phenylamino)-1H-pyrazole-4-carboxamide]
JAK2
  IC50: 185 nM
JAK1
  IC50: 10 nM
